Experimental data published in patent US20250098679A1, “HERBICIDAL PYRIDONE DERIVATIVES” (SYNGENTA CROP PROTECTION AG, priority 2021, published 2025).

Tests used:
Type in all cases: in vivo
Settings in all cases: evaluated after 13 days
[1] = system: Setaria faberi (SETFA); experiment: Pre-emergence Test, Setaria faberi (SETFA)
[2] = system: Echinochloa crus-galli (ECHCG); experiment: Pre-emergence Test, Echinochloa crus-galli (ECHCG)
[3] = system: Zea mays (ZEAMX); experiment: Pre-emergence Test, Zea mays (ZEAMX)
[4] = system: Ipomoea hederacea (IPOHE); experiment: Pre-emergence Test, Ipomoea hederacea (IPOHE)
[5] = system: Amaranthus palmeri (AMAPA); experiment: Pre-emergence Test, Amaranthus palmeri (AMAPA)
[6] = system: Amaranthus retoflexus (AMARE); experiment: Pre-emergence Test, Amaranthus retoflexus (AMARE)
[7] = system: Setaria faberi (SETFA); experiment: Post-emergence Test, Setaria faberi (SETFA); set-up: key to percentage damage caused to the plant, SETFA (five-point scale): 5=81-100%, 4=61-80%, 3=41-60%, 2=21-40%, 1=0-20% damage
Outline: (§1)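 Percent plant damage was rated 13 days post-application on a 1–5 scale (1=0-20%, 5=81-100%). Application used an aqueous acetone (50:50)/0.5% Tween 20 spray, normally 1000 g/ha, with controlled glasshouse conditions (24/16 °C, 14 h light, 65% humidity).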

[8] = system: Echinochloa crus-galli (ECHCG); experiment: Post-emergence Test, Echinochloa crus-galli (ECHCG); set-up: key to percentage damage caused to the plant, ECHCG (five-point scale): 5=81-100%, 4=61-80%, 3=41-60%, 2=21-40%, 1=0-20% damage
Outline: as §1

[9] = system: Zea mays (ZEAMX); experiment: Post-emergence Test, Zea mays (ZEAMX); set-up: key to percentage damage caused to the plant, ZEAMX (five-point scale): 5=81-100%, 4=61-80%, 3=41-60%, 2=21-40%, 1=0-20% damage
Outline: as §1

[10] = system: Ipomoea hederacea (IPOHE); experiment: Post-emergence Test, Ipomoea hederacea (IPOHE); set-up: key to percentage damage caused to the plant, IPOHE (five-point scale): 5=81-100%, 4=61-80%, 3=41-60%, 2=21-40%, 1=0-20% damage
Outline: as §1

[11] = system: Amaranthus palmeri (AMAPA); experiment: Post-emergence Test, Amaranthus palmeri (AMAPA); set-up: key: 5=81-100%, 4=61-80%, 3=41-60%, 2=21-40%, 1=0-20% damage
Outline: as §1

[12] = system: Amaranthus retoflexus (AMARE); experiment: Post-emergence Test, Amaranthus retoflexus (AMARE); set-up: key to percentage damage caused to the plant, AMARE (five-point scale): 5=81-100%, 4=61-80%, 3=41-60%, 2=21-40%, 1=0-20% damage
Outline: as §1

Compound	Pre-emergence Test SETFA, percentage damage caused to the plant (five-point scale) ([1]; 1000 g/ha)	Pre-emergence Test ECHCG, percentage damage caused to the plant (five-point scale) ([2]; 1000 g/ha)	Pre-emergence Test ZEAMX, percentage damage caused to the plant (five-point scale) ([3]; 1000 g/ha)	Pre-emergence Test IPOHE, percentage damage caused to the plant (five-point scale) ([4]; 1000 g/ha)	Pre-emergence Test AMAPA, percentage damage caused to the plant (five-point scale) ([5]; 1000 g/ha)	Pre-emergence Test AMARE, percentage damage caused to the plant (five-point scale) ([6]; 1000 g/ha)	percentage damage caused to the plant, SETFA (five-point scale) ([7]; 250 g/Ha)	percentage damage caused to the plant, SETFA (five-point scale) ([7]; 1000 g/ha)	percentage damage caused to the plant, ECHCG (five-point scale) ([8]; 250 g/Ha)	percentage damage caused to the plant, ECHCG (five-point scale) ([8]; 1000 g/ha)	percentage damage caused to the plant, ZEAMX (five-point scale) ([9]; 250 g/Ha)	percentage damage caused to the plant, ZEAMX (five-point scale) ([9]; 1000 g/ha)	percentage damage caused to the plant, IPOHE (five-point scale) ([10]; 250 g/Ha)	percentage damage caused to the plant, IPOHE (five-point scale) ([10]; 1000 g/ha)	percentage damage caused to the plant, AMAPA (five-point scale) ([11]; 250 g/Ha)	percentage damage caused to the plant, AMAPA (five-point scale) ([11]; 1000 g/ha)	percentage damage caused to the plant, AMARE (five-point scale) ([12]; 250 g/Ha)	percentage damage caused to the plant, AMARE (five-point scale) ([12]; 1000 g/ha)	Pre-emergence Test SETFA, percentage damage caused to the plant (five-point scale) ([1]; 250 g/Ha (*))	Pre-emergence Test ECHCG, percentage damage caused to the plant (five-point scale) ([2]; 250 g/Ha (*))	also measured
CCOC(=O)c1c(-c2cccc(Cl)c2)n(CC)c(Cn2ccc(C(F)(F)F)n2)cc1=O [Compound 26, ethyl 2-(3-chlorophenyl)-1-ethyl-4-oxo-6-[[3-(trifluoromethyl)pyrazol-1-yl]methyl]pyridine-3-carboxylate]	3 (3=41-60%)	2 (2=21-40%)	1 (1=0-20%)	0	0	0	1 (1=0-20%)	1 (1=0-20%)	1 (1=0-20%)	1 (1=0-20%)	1 (1=0-20%)	2 (2=21-40%)	1 (1=0-20%)	3 (3=41-60%)	1 (1=0-20%)	2 (2=21-40%)	1 (1=0-20%)	1 (1=0-20%)	–	–	–
CCn1c(Cn2ccc(CC#N)n2)cc(=O)c(C(=O)O)c1-c1ccc(Cl)c(Cl)c1 [Compound 175, 6-[[3-(cyanomethyl)pyrazol-1-yl]methyl]-2-(3,4-dichlorophenyl)-1-ethyl-4-oxo-pyridine-3-carboxylic acid]	3 (3=41-60%)	1 (1=0-20%)	0	1 (1=0-20%)	0	0	0	3 (3=41-60%)	1 (1=0-20%)	2 (2=21-40%)	0	1 (1=0-20%)	1 (1=0-20%)	2 (2=21-40%)	0	0	0	0	–	–	–
CCn1c(Cn2ccc(Cl)n2)cc(=O)c(C(=O)O)c1-c1ccc(Cl)c(Cl)c1 [Compound 4, 6-[(3-chloropyrazol-1-yl)methyl]-2-(3,4-dichlorophenyl)-1-ethyl-4-oxo-pyridine-3-carboxylic acid]	5 (5=81-100%)	5 (5=81-100%)	3 (3=41-60%)	3 (3=41-60%)	1 (1=0-20%)	2 (2=21-40%)	4 (4=61-80%)	4 (4=61-80%)	4 (4=61-80%)	4 (4=61-80%)	2 (2=21-40%)	3 (3=41-60%)	–	4 (4=61-80%)	3 (3=41-60%)	4 (4=61-80%)	3 (3=41-60%)	2 (2=21-40%)	5 (5=81-100%)	5 (5=81-100%)	Pre-emergence Test ZEAMX, percentage damage caused to the plant (five-point scale) ([3]; 250 g/Ha (*)): 1 (1=0-20%); Pre-emergence Test IPOHE, percentage damage caused to the plant (five-point scale) ([4]; 250 g/Ha (*)): 2 (2=21-40%); Pre-emergence Test AMAPA, percentage damage caused to the plant (five-point scale) ([5]; 250 g/Ha (*)): 0; Pre-emergence Test AMARE, percentage damage caused to the plant (five-point scale) ([6]; 250 g/Ha (*)): 0
CCn1c(Cn2ccc(C(F)(F)F)n2)cc(=O)c(C(=O)O)c1-c1ccc(Cl)c(C#N)c1 [Compound 128, 2-(4-chloro-3-cyano-phenyl)-1-ethyl-4-oxo-6-[[3-(trifluoromethyl)pyrazol-1-yl]methyl]pyridine-3-carboxylic acid]	3 (3=41-60%)	1 (1=0-20%)	0	1 (1=0-20%)	1 (1=0-20%)	1 (1=0-20%)	0	3 (3=41-60%)	1 (1=0-20%)	4 (4=61-80%)	0	1 (1=0-20%)	1 (1=0-20%)	1 (1=0-20%)	0	1 (1=0-20%)	0	1 (1=0-20%)	–	–	–
CCCOc1ccn(Cc2cc(=O)c(C(=O)O)c(-c3ccc(Cl)c(Cl)c3)n2CC)n1 [Compound 160, 2-(3,4-dichlorophenyl)-1-ethyl-4-oxo-6-[(3-propoxypyrazol-1-yl)methyl]pyridine-3-carboxylic acid]	5 (5=81-100%)	5 (5=81-100%)	3 (3=41-60%)	2 (2=21-40%)	0	1 (1=0-20%)	2 (2=21-40%)	4 (4=61-80%)	2 (2=21-40%)	4 (4=61-80%)	1 (1=0-20%)	4 (4=61-80%)	3 (3=41-60%)	3 (3=41-60%)	0	1 (1=0-20%)	0	1 (1=0-20%)	2 (2=21-40%)	2 (2=21-40%)	Pre-emergence Test ZEAMX, percentage damage caused to the plant (five-point scale) ([3]; 250 g/Ha (*)): 0; Pre-emergence Test IPOHE, percentage damage caused to the plant (five-point scale) ([4]; 250 g/Ha (*)): 2 (2=21-40%); Pre-emergence Test AMAPA, percentage damage caused to the plant (five-point scale) ([5]; 250 g/Ha (*)): 0; Pre-emergence Test AMARE, percentage damage caused to the plant (five-point scale) ([6]; 250 g/Ha (*)): 0
